Source: the NIST ThermoML archive (doi:10.1021/je800583r)
± gives the expanded uncertainty stated by the source.

Conditions: 101.33 kPa, Liquid

## CCC1COC(=O)O1 (configuration not stated) [1,2-butylene carbonate]
283 K
  mass density: 1155.2 ± 0.4 kg/m3
293.1 K
  mass density: 1146.6 ± 0.4 kg/m3
295.1 K
  mass density: 1144.9 ± 0.4 kg/m3
297.1 K
  mass density: 1143.3 ± 0.4 kg/m3
299.1 K
  mass density: 1141.7 ± 0.4 kg/m3
301.1 K
  mass density: 1140.1 ± 0.4 kg/m3
303.1 K
  mass density: 1138.6 ± 0.4 kg/m3
